Assay [1] deals with H460, H1299 and CRL5889 NSCLC cells. As to the kind of experiment: CellTiter-Glo 2.0 luminescent cell viability after IR, NSCLC cells. Particulars: CellTiter-Glo 2.0, 48 h post-irradiation, three independent experiments. It counts as cell-based. On the procedure: H1299, CRL5889 and H460 cells were cultured in Roswell Park Memorial Institute (RPMI) 1640 medium (Life Technologies) containing 10% foetal bovine serum (Thermo Fisher Scientific). Human bronchial epithelial cells (HBEC3-KT) were maintained in keratinocyte serum-free medium supplemented with epidermal growth factor and bovine pituitary extract (Life Technologies). The histology features and origin of all cell lines used have been previously described. Cell lines were authenticated using STR profiling. Cells were grown in a humidified incubator at 37 °C/5% CO2 atmosphere. All cell lines were verified to be free of mycoplasma contamination.
Irradiations were done at room temperature using a ^137Cs source (Gammacell 40 Exactor [MDS Nordion]; dose rate 1.1 Gy/min). […]
For siRNA transfections, cells were transfected with negative control or COMMD4 siRNA #2 (CCAUGUCCCUCUCAGCAGA[dT][dT] MISSION® siRNA, Sigma-Aldrich) using RNAiMax (Life Technologies) as previously described and samples were analysed 48 to 72 h post-transfection. […] Cells were mock-transfected, or transfected with FLAG-H2BWT/FLAG-H2BMUT1, or COMMD4-FLAG/A70K with FuGENE® HD (Promega) using the manufacturer’s protocol and analysed 24 h post-transfection.
A CellTiter-Glo 2.0 Luminescent assay (Promega Corporation) was carried out as previously described. […] Luminescence was measured using a PHERAstar FSX detection system (BMG Labtech). […]

The test system of assay [2] is NSCLC cells. As to the kind of experiment: Mitotic catastrophe (emerin and phalloidin staining), NSCLC cells. Type of assay: cell-based. As to conditions: 100 cells counted. Here is the method:
(§1) For siRNA transfections, cells were transfected with negative control or COMMD4 siRNA #2 (CCAUGUCCCUCUCAGCAGA[dT][dT] MISSION® siRNA, Sigma-Aldrich) using RNAiMax (Life Technologies) as previously described and samples were analysed 48 to 72 h post-transfection. The H2B wild-type (FLAG-H2BWT) and mutant (FLAG-H2BMUT1) expression constructs were generated with the 10-amino acid peptide and the corresponding mutant cloned into the expression vector pCDNA3.1/(+)-N-DYK containing an N-terminal FLAG tag and a C-terminal nuclear localisation signal (AAKRVKLDS) (GenScript). […] Cells were mock-transfected, or transfected with FLAG-H2BWT/FLAG-H2BMUT1, or COMMD4-FLAG/A70K with FuGENE® HD (Promega) using the manufacturer’s protocol and analysed 24 h post-transfection.
NSCLC cells were grown in 96-well plates as above and stained with anti-emerin antibody and phalloidin. Mitotic catastrophe was scored as previous. A minimum of 100 cells for each experimental condition were assessed to determine the percentage of aberrant nuclei.
As previously determined, in this study, we used two markers to determine mitotic catastrophe: emerin staining of the nuclear envelope and phalloidin staining of the F-actin cytoskeleton. […] We subsequently measured apoptosis by staining for Annexin V and propidium iodide via flow cytometry in FLAG-H2B WT, FLAG-H2BMUT1 and mock-transfected control and NSCLC cells (Fig. 5c, d). […]

For assay [3], the system named is HBEC3-KT cells. In words: Annexin V-FITC / propidium iodide apoptosis, HBEC3-KT cells. It counts as cell-based, Human. Particulars: flow cytometry, three independent experiments. On the procedure: as §1
The Annexin V-FITC apoptosis kit (United Bioresearch, ALX-850-020-K101, Enzo Life Sciences, Farmingdale, NY, USA) was used to measure viable and apoptotic cells, as previously described. […] CytExpert 2.0 software was used for data acquisition and analysed using the FlowJo v10 software.
Fig. 5 Induction of mitotic catastrophe and apoptosis in NSCLC cells. a Emerin and phalloidin staining respectively in three NSCLC and control HBEC3-KT cells. […] Asterix (*) denotes *P < 0.05 and ** P < 0.005 from 100 cells counted. […] The live cells were stained with Annexin V-FITC and propidium iodide and analysed by flow cytometer. […]
For orientation: In flow cytometry, cells or beads pass a laser one at a time.

Entries after “also recorded” stand apart in the source; their conditions may differ. No end group written: not given here.

As for “FLAG-H2BWT: 10-amino acid peptide cloned into expression vector containing an N-terminal FLAG tag and a C-terminal nuclear localisation signal ({FLAG}-SFVNDIFERIAAKRVKLDS)”, the “sensitivity to ionising radiation (luminescent viability)” value in assay [1] was “hypersensitive to IR compared to FLAG-H2BMUT1 and mock-transfected cells”. In assay [2], the “aberrant nuclei / mitotic catastrophe” value is “significantly more aberrant nuclei, indicative of mitotic catastrophe induction, relative to FLAG-H2BMUT1; also recorded: significantly more mitotic catastrophe than control cells”. The induction of apoptosis entry in assay [3] was “no significant induction of apoptosis”.

The values are drawn from PMC10703884, “Targeting the COMMD4–H2B protein complex in lung cancer” (British Journal of Cancer, 2023).
